Where two headings read alike, the source gives them in different places.
How the values were obtained:
flank organs hair growth = assay: Golden Syrian hamster assay (flank organ hair mass); assay type: in vivo; conditions: topical, thirteen applications; for Treated (hair mass, mean ± SEM): treated flank organ
Description: Male intact Golden Syrian hamsters are considered acceptable models for human beard hair growth in that they display oval shaped flank organs, one on each side, each about 8 mm. in major diameter, which grow thick black and coarse hair similar to human beard hair. These organs produce hair in response to androgens in the hamster. To evaluate the effectiveness of a particular OAT inhibitor, the flank organs of each of a group of hamsters are depilated by applying a thioglycolate based chemical depilatory (Surgex). To one organ of each animal 10-25 μl. of vehicle alone once a day is applied, while to the other organ of each animal an equal amount of vehicle containing an OAT inhibitor is applied. After thirteen applications (one application per day for five days a week), the flank organs are shaved and the amount of recovered hair (hair mass) from each is weighed. Percent-reduction of hair growth is calculated by subtracting the hair mass (mg) value of the test compound treated side from the hair mass value of the vehicle treated side; the delta value obtained is then divided by the hair mass value of the vehicle treated side, and the resultant number is multiplied by 100.
The above-described assay will be referred to herein as the "Golden Syrian hamster" assay. Preferred compositions provide an reduction in hair growth of at least about 35%, more preferably at least about 50%, and most preferably at least about 70% when tested in the Golden Syrian hamster assay.
The vehicle used in the compositions tested was 68% deionized water, 16% absolute ethanol, 5% propylene glycol, 5% dipropylene glycol, 4% benzoyl alcohol, and 2% propylene carbonate.

[1] = molecular target: T1, ornithine aminotransferase (OAT) (Mesocricetus auratus, UniProt A0A1U7QEB0); assay: OAT activity assay in hair follicles (P5C formation, HPLC of DHQ); assay type: biochemical, hamster
T1 construct: Assays (including the initial assays) were conducted utilizing excised hamster flank organ follicles; from tissue; host or cells: hamster flank organ hair follicles, minced, sonicated and centrifuged; supernatant assayed
T1 sequence (A0A1U7QEB0 1-439): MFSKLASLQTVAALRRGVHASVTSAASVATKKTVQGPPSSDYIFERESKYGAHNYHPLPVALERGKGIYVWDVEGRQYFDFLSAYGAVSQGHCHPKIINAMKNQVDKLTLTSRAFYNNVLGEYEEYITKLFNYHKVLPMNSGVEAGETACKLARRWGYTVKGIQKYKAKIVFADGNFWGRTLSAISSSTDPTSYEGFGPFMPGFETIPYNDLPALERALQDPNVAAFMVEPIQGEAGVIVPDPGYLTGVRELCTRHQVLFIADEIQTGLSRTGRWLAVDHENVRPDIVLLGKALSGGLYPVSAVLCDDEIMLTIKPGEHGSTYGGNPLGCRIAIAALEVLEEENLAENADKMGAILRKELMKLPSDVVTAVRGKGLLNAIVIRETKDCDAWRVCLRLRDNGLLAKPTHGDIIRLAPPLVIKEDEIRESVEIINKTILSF
Experimental: The following assay for OAT activity based on the procedure of O'Donnell et al., Analytical Biochemistry 90, 41-46 (1978) was adapted for OAT measurements in hair follicles, and can be used to evaluate the effectiveness of OAT inhibitors in reducing OAT activity.
The product of OAT activity, pyrroline-5-carboxylic acid (P5C), was measured by reverse-phase HPLC analysis of dihydroquinazolium ion (DHQ). DHQ is a reaction product of PSC and o-aminobenzylaldehyde (OAB). The analysis was performed with a Waters 490 UV detector. The amount of DHQ formed was directly proportional to the concentration of P5C. The sensitivity of the Waters 490 UV detector had been determined to be above 100 picomoles of PSC injected and was reasonably linear.
Initial assays of flank organ follicle OAT activity were conducted employing saturating doses of ornithine (350 mM). The OAT mediated conversion of ornithine to P5C was monitored by measuring in vitro PSC formation, resulting in time and concentration dependent increases in PSC.
Assays (including the initial assays) were conducted utilizing excised hamster flank organ follicles. The excised hamster follicles were diluted in assay buffer (2 follicles/300 μl) and then were minced with scissors and homogenized with a sonicator. The resultant homogenate was centrifuged to obtain a cytosolic supernatant which was assayed for OAT. Samples were incubated for one hour with either Gabaculin, L-Canaline, or 5-FMOrn at 1 mM, 100 μM, 10 μM, and 1 μM concentrations. The concentration of P5C was then assayed.

[2] = 10 μM, one hour incubation, flank organ follicle supernatant
[3] = 100 μM, one hour incubation, flank organ follicle supernatant, read-out: Percent Inhibition (OAT)

SMILES: NC(CF)CCC(N)C(=O)O (stereo not shown) [5-FMOrn, 6-fluoro-2,5-diaminohexanoic acid]
- % Reduction (of hair growth, mean ± SEM) (flank organs hair growth; 5% in vehicle): 66.02 ± 6.30%
- Treated (hair mass, mean ± SEM) (flank organs hair growth; 5% in vehicle): .616 ± .15 mg
- % Reduction (of hair growth, mean ± SEM) (flank organs hair growth; 15% in vehicle): 84.55 ± 2.47%
- Treated (hair mass, mean ± SEM) (flank organs hair growth; 15% in vehicle): .322 ± .07 mg
- nm P5C formed/fol/1 hr ([1]; 1 μM, one hour incubation): 31.419 nm P5C formed/fol/1 hr
- Percent Inhibition (OAT) ([1]; 1 μM, one hour incubation, flank organ follicle supernatant): No OAT inhibition and none
- nm P5C formed/fol/1 hr ([1]; 10 μM, one hour incubation): 29.327 nm P5C formed/fol/1 hr
- Percent Inhibition (OAT) [1, 2]: No OAT inhibition and none
- nm P5C formed/fol/1 hr ([1]; 100 μM, one hour incubation): 19.562 nm P5C formed/fol/1 hr
- nm P5C formed/fol/1 hr ([1]; 1 mM, pH = 7.5, one hour incubation): 3.334 nm P5C formed/fol/1 hr
- Percent Inhibition (OAT) ([1]; 1 mM, pH = 7.5, one hour incubation, flank organ follicle supernatant): 83.036%
- inhibition at 100 µM ([1]; read-out: Percent Inhibition (OAT), 100 μM, one hour incubation, flank organ follicle supernatant): 0.471%
- inhibition at 1000 µM ([1]; read-out: Percent Inhibition (OAT), 1 mM, pH = 7.5, one hour incubation, flank organ follicle supernatant): 83%

SMILES: NOCC[C@H](N)C(=O)O [Canaline, (S)-2-amino-4-amino-oxybutyric acid]
- % Reduction (of hair growth, mean ± SEM) (flank organs hair growth; 2% in vehicle): 20.99 ± 7.70%
- Treated (hair mass, mean ± SEM) (flank organs hair growth; 2% in vehicle): 1.553 ± .20 mg
- % Reduction (of hair growth, mean ± SEM) (flank organs hair growth; 10% in vehicle): 44.50 ± 7.40%
- Treated (hair mass, mean ± SEM) (flank organs hair growth; 10% in vehicle): .790 ± .11 mg
- nm P5C formed/fol/1 hr ([1]; 1 μM, one hour incubation): 29.859 nm P5C formed/fol/1 hr
- Percent Inhibition (OAT) ([1]; 1 μM, one hour incubation, flank organ follicle supernatant, listed as L-Canaline): no inhibition and none
- nm P5C formed/fol/1 hr ([1]; 10 μM, one hour incubation): 24.096 nm P5C formed/fol/1 hr
- Percent Inhibition (OAT) ([1]; 10 μM, one hour incubation, flank organ follicle supernatant, listed as L-Canaline): no inhibition and none
- nm P5C formed/fol/1 hr ([1]; 100 μM, one hour incubation): 14.612 nm P5C formed/fol/1 hr
- Percent Inhibition (OAT) ([1]; 100 μM, one hour incubation, flank organ follicle supernatant, listed as L-Canaline): 25.653%
- inhibition at 100 µM [1, 3]: 25%
- inhibition at 1000 µM ([1]; 1 mM, pH = 7.5, one hour incubation, flank organ follicle supernatant, read-out: Percent Inhibition (OAT)): 100%

SMILES: NC1C=CC=C(C(=O)O)C1 (stereo not shown) [Gabaculin, 3-amino-2,3-dihydrobenzoic acid]
- % Reduction (of hair growth, mean ± SEM) (flank organs hair growth; 10% in vehicle): 43.06 ± 2.72%
- Treated (hair mass, mean ± SEM) (flank organs hair growth; 10% in vehicle): 1.365 ± .14 mg
- % Reduction (of hair growth, mean ± SEM) (flank organs hair growth; 25% in vehicle): 48.08 ± 5.00%
- Treated (hair mass, mean ± SEM) (flank organs hair growth; 25% in vehicle): 1.266 ± .11 mg
- nm P5C formed/fol/1 hr ([1]; 1 μM, one hour incubation): 19.637 nm P5C formed/fol/1 hr
- inhibition at 1 µM ([1]; 1 μM, one hour incubation, flank organ follicle supernatant, read-out: Percent Inhibition (OAT)): 0.089%
- nm P5C formed/fol/1 hr ([1]; 10 μM, one hour incubation): 5.057 nm P5C formed/fol/1 hr
- Percent Inhibition (OAT) [1, 2]: 74.268%
- inhibition at 10 µM ([1]; 10 μM, one hour incubation, flank organ follicle supernatant, read-out: Percent Inhibition (OAT)): 75%
- inhibition at 100 µM [1, 3]: 100%
- inhibition at 1000 µM ([1]; 1 mM, one hour incubation, flank organ follicle supernatant, read-out: Percent Inhibition (OAT)): 100%
- relative potency as OAT inhibitor ([1]; comparison of Gabaculin, L-Canaline and 5-FMOrn): most potent inhibitor

From patent US5474763A, “Reduction of hair growth” (priority 1994, dated 1995)
